This passage reports mutagenic call results from PubChem BioAssay AID1259407 (Chemical Carcinogenesis Research Information System (CCRIS), 2018).

This series has as its system CCRIS mutagenicity, Ames/micronucleus/aberration tests. Kind of series: CCRIS mutagenicity studies.
Setting [1] is: Test System: AMES SALMONELLA TYPHIMURIUM, Strain/Indicator: TA1537, Metabolic Activation: NONE, Method: PREINCUBATION
The mark [2] stands for this setting: Test System: AMES SALMONELLA TYPHIMURIUM, Strain/Indicator: TA98, Metabolic Activation: NONE, Method: STANDARD PLATE.
Where [3] appears, read: Test System: AMES SALMONELLA TYPHIMURIUM, Strain/Indicator: TA98, Metabolic Activation: RAT, LIVER, S-9, AROCLOR 1254, Method: STANDARD PLATE.
Where [4] appears, read: Test System: AMES SALMONELLA TYPHIMURIUM, Strain/Indicator: TA100, Metabolic Activation: NONE, Method: STANDARD PLATE.
Setting [5] is: Test System: AMES SALMONELLA TYPHIMURIUM, Strain/Indicator: TA100, Metabolic Activation: RAT, LIVER, S-9, AROCLOR 1254, Method: STANDARD PLATE.
Setting [6] is: Test System: AMES SALMONELLA TYPHIMURIUM, Strain/Indicator: TA97, Metabolic Activation: NONE, Method: PREINCUBATION
The mark [7] stands for this setting: Test System: AMES SALMONELLA TYPHIMURIUM, Strain/Indicator: TA98, Metabolic Activation: NONE, Method: PREINCUBATION
Where [8] appears, read: Test System: AMES SALMONELLA TYPHIMURIUM, Strain/Indicator: TA100, Metabolic Activation: NONE, Method: PREINCUBATION
Setting [9] is: Test System: AMES SALMONELLA TYPHIMURIUM, Strain/Indicator: TA1535, Metabolic Activation: NONE, Method: PREINCUBATION
The mark [10] stands for this setting: Test System: AMES SALMONELLA TYPHIMURIUM, Strain/Indicator: TA102, Metabolic Activation: NONE, Method: PREINCUBATION

Active and inactive are the calls of the source. No rule for the calls is given here.

For the compound `Nn1c2ccccc2c2cnccc21`, the mutagenic call is “active; positive” under setting [1] and “inactive; negative” (Test System: AMES SALMONELLA TYPHIMURIUM, Strain/Indicator: TA1537, Metabolic Activation: RAT, LIVER, S-9, PHENOBARBITAL, Method: PREINCUBATION).

`C[C@H]1CCC[C@@]2(C)CCCC[C@]12O`: the mutagenic call is “inactive; negative” under setting [2], “inactive; negative” under setting [3], “inactive; negative” under setting [4] and “inactive; negative” under setting [5].

For the compound `O=C(/C=C/c1cccc([N+](=O)[O-])c1)c1ccccc1`, the mutagenic call under setting [2] was “inactive; negative”, the mutagenic call under setting [3] is “inactive; negative”, the mutagenic call under setting [4] is “inactive; negative” and the mutagenic call under setting [5] was “inactive; negative”.

Turning to `O=S(=O)(O)c1ccccc1`, the mutagenic call is, setting by setting: (Test System: AMES SALMONELLA TYPHIMURIUM, Strain/Indicator: TA97, Metabolic Activation: HAMSTER, LIVER, S-9, AROCLOR 1254 (10 OR 30%), Method: PREINCUBATION) “inactive; negative”; under setting [6], “inactive; negative”; (Test System: AMES SALMONELLA TYPHIMURIUM, Strain/Indicator: TA97, Metabolic Activation: RAT, LIVER, S-9, AROCLOR 1254 (10 OR 30%), Method: PREINCUBATION) “inactive; negative”; (Test System: AMES SALMONELLA TYPHIMURIUM, Strain/Indicator: TA98, Metabolic Activation: HAMSTER, LIVER, S-9, AROCLOR 1254 (10 OR 30%), Method: PREINCUBATION) “inactive; negative”; under setting [7], “inactive; negative”; (Test System: AMES SALMONELLA TYPHIMURIUM, Strain/Indicator: TA98, Metabolic Activation: RAT, LIVER, S-9, AROCLOR 1254 (10 OR 30%), Method: PREINCUBATION) “inactive; negative”. In addition, the mutagenic call runs as follows: (Test System: AMES SALMONELLA TYPHIMURIUM, Strain/Indicator: TA100, Metabolic Activation: HAMSTER, LIVER, S-9, AROCLOR 1254 (10 OR 30%), Method: PREINCUBATION) “inactive; negative”; under setting [8], “inactive; negative”; (Test System: AMES SALMONELLA TYPHIMURIUM, Strain/Indicator: TA100, Metabolic Activation: RAT, LIVER, S-9, AROCLOR 1254 (10 OR 30%), Method: PREINCUBATION) “inactive; negative”; (Test System: AMES SALMONELLA TYPHIMURIUM, Strain/Indicator: TA1535, Metabolic Activation: HAMSTER, LIVER, S-9, AROCLOR 1254 (10 OR 30%), Method: PREINCUBATION) “inactive; negative”; under setting [9], “inactive; negative”; (Test System: AMES SALMONELLA TYPHIMURIUM, Strain/Indicator: TA1535, Metabolic Activation: RAT, LIVER, S-9, AROCLOR 1254 (10 OR 30%), Method: PREINCUBATION) “inactive; negative”.

Turning to `CC1=CC(=O)C=CC1=O`, the mutagenic call is, setting by setting: under setting [7], “inactive; negative”; (Test System: AMES SALMONELLA TYPHIMURIUM, Strain/Indicator: TA98, Metabolic Activation: RAT, LIVER, S-9, PHENOBARBITAL AND 5,6-BENZOFLAVONE, Method: PREINCUBATION) “inactive; negative”; under setting [8], “inactive; negative”; under setting [10], “inactive; negative”; (Test System: AMES SALMONELLA TYPHIMURIUM, Strain/Indicator: TA102, Metabolic Activation: RAT, LIVER, S-9, PHENOBARBITAL AND 5,6-BENZOFLAVONE, Method: PREINCUBATION) “inactive; negative”; (Test System: AMES SALMONELLA TYPHIMURIUM, Strain/Indicator: TA104, Metabolic Activation: NONE, Method: PREINCUBATION) “inactive; negative”. In addition, the mutagenic call is, setting by setting: (Test System: AMES SALMONELLA TYPHIMURIUM, Strain/Indicator: TA104, Metabolic Activation: RAT, LIVER, S-9, PHENOBARBITAL AND 5,6-BENZOFLAVONE, Method: PREINCUBATION) “inactive; negative”; (Test System: AMES SALMONELLA TYPHIMURIUM, Strain/Indicator: TA2637, Metabolic Activation: NONE, Method: PREINCUBATION) “inactive; negative”; (Test System: AMES SALMONELLA TYPHIMURIUM, Strain/Indicator: TA2637, Metabolic Activation: RAT, LIVER, S-9, PHENOBARBITAL AND 5,6-BENZOFLAVONE, Method: PREINCUBATION) “active; positive”.

Take `OCc1ccccc1`: the mutagenic call reads like this: (End Point: IN VIVO MICRONUCLEUS, Test System: BONE MARROW POLYCHROMATIC ERYTHROCYTES, Species: MOUSE, Strain/Sex: DDY/MALE, Route: IP) “inactive; negative”; under setting [6], “inactive; negative”; (Test System: AMES SALMONELLA TYPHIMURIUM, Strain/Indicator: TA97, Metabolic Activation: RAT, LIVER, S-9, AROCLOR 1254, Method: PREINCUBATION) “inactive; negative”; (Test System: AMES SALMONELLA TYPHIMURIUM, Strain/Indicator: TA98, Metabolic Activation: HAMSTER, LIVER, S-9, AROCLOR 1254, Method: PREINCUBATION) “inactive; negative”; under setting [7], “inactive; negative”; (Test System: AMES SALMONELLA TYPHIMURIUM, Strain/Indicator: TA98, Metabolic Activation: RAT, LIVER, S-9, AROCLOR 1254, Method: PREINCUBATION) “inactive; negative”. Besides, the mutagenic call was “inactive; negative” (Test System: AMES SALMONELLA TYPHIMURIUM, Strain/Indicator: TA100, Metabolic Activation: HAMSTER, LIVER, S-9, AROCLOR 1254, Method: PREINCUBATION); “inactive; negative” under setting [8]; “inactive; negative” under setting [4]; “inactive; negative” (Test System: AMES SALMONELLA TYPHIMURIUM, Strain/Indicator: TA100, Metabolic Activation: RAT, LIVER, S-9, AROCLOR 1254, Method: PREINCUBATION); “inactive; negative” under setting [10]; “inactive; negative” (Test System: AMES SALMONELLA TYPHIMURIUM, Strain/Indicator: TA102, Metabolic Activation: RAT, LIVER, S-9, AROCLOR 1254, Method: PREINCUBATION). For the same compound, the mutagenic call by setting is: (Test System: AMES SALMONELLA TYPHIMURIUM, Strain/Indicator: TA1535, Metabolic Activation: HAMSTER, LIVER, S-9, AROCLOR 1254, Method: PREINCUBATION) “inactive; negative”; under setting [9], “inactive; negative”; (Test System: AMES SALMONELLA TYPHIMURIUM, Strain/Indicator: TA1535, Metabolic Activation: RAT, LIVER, S-9, AROCLOR 1254, Method: PREINCUBATION) “inactive; negative”; (Test System: AMES SALMONELLA TYPHIMURIUM, Strain/Indicator: TA1537, Metabolic Activation: HAMSTER, LIVER, S-9, AROCLOR 1254, Method: PREINCUBATION) “inactive; negative”; under setting [1], “inactive; negative”; (Test System: AMES SALMONELLA TYPHIMURIUM, Strain/Indicator: TA1537, Metabolic Activation: RAT, LIVER, S-9, AROCLOR 1254, Method: PREINCUBATION) “inactive; negative”. Also, the mutagenic call runs as follows: (Test System: Ames Salmonella typhimurium, Strain/Indicator: TA98, Metabolic Activation: None, Method: Direct plate incorporation) “inactive; negative”; (Test System: Ames Salmonella typhimurium, Strain/Indicator: TA98, Metabolic Activation: Rat, liver, S-9, Aroclor 1254, Method: Direct plate incorporation) “inactive; negative”; (Test System: Ames Salmonella typhimurium, Strain/Indicator: TA100, Metabolic Activation: None, Method: Direct plate incorporation) “inactive; negative”; (Test System: Ames Salmonella typhimurium, Strain/Indicator: TA100, Metabolic Activation: Rat, liver, S-9, Aroclor 1254, Method: Direct plate incorporation) “inactive; negative”; (Test System: MOUSE LYMPHOMA, Strain/Indicator: L5178Y (TK+/TK-), Metabolic Activation: RAT, LIVER, S-9, AROCLOR 1254, Method: SUSPENSION/PLATE) “inactive; negative”.

Take `CC(=O)OCc1c2ccccc2c(C)c2ccccc12`: the mutagenic call was “active; positive” under setting [2] and “active; positive” under setting [4].

Take `C[C@@H]1CC2c3cccc4c3c(cn4C3CCCC3)C[C@H]2N(C)C1` (some centres not stated): under setting [5], the mutagenic call was “active; positive”.
